Activity calls are given as the source filed them. No cut-off for these calls is given here.
Legend:
[1] = target: T1, Tyrosine-protein phosphatase non-receptor type 1 (Homo sapiens, UniProt P18031); assay: Inhibition of PTP1B (unknown origin)
T1 sequence (P18031 whole entry): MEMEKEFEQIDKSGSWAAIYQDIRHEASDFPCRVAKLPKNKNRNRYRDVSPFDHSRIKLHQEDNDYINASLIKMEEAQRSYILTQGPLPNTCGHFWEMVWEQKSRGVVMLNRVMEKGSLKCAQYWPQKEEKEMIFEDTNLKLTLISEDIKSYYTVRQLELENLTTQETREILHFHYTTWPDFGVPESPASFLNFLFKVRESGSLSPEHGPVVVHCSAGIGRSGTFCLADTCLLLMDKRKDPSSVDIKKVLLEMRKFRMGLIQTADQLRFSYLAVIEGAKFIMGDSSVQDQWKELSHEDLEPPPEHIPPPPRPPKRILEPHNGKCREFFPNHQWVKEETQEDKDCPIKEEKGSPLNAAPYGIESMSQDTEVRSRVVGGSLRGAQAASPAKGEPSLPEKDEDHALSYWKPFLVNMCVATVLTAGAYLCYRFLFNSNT

[2] = target: T2, Tyrosine-protein phosphatase non-receptor type 1 (Homo sapiens) (UniProt P18031); details: 23.1 uM
T2 sequence (whole entry): T1 sequence (P18031 whole entry)
Description: Inhibition of PTP1B (unknown origin) at 23.1 uM

[3] = target: T2, Tyrosine-protein phosphatase non-receptor type 1 (Homo sapiens); assay: Inhibition of PTP1B (unknown origin) at 20.7 uM

Row | IC50 [1] [µM] | SMILES | also measured
1 | 8.5 | C[C@H]1OC(=O)c2c(O)cc3c(c2[C@H]1O)C[C@H]1[C@@]2(C)C=CC(=O)C(C)(C)[C@@H]2C[C@H](O)[C@]1(C)O3 | 
2 |  | C/C(=C\Cc1c(O)cc(O)c2c1C[C@@H](C)OC2=O)CC/C=C(\C)CCC(O)C(C)(C)O (stereo not given in full) | inhibition [2]: 40%
3 | 14.9 | C[C@@H]1Cc2c3c(cc(O)c2C(=O)O1)O[C@@]1(C)[C@@H](O)C[C@H]2C(C)(C)C(=O)CC[C@]2(C)[C@@H]1C3 | 
4 |  | CC(=O)O[C@@H]1c2c3c(cc(O)c2C(=O)O[C@@H]1C)O[C@@]1(C)[C@@H](O)C[C@H]2C(C)(C)C(=O)C=C[C@]2(C)[C@@H]1C3 | inhibition [3]: inactive
5 | 8.4 | C[C@@H]1Cc2c3c(cc(O)c2C(=O)O1)O[C@@]1(C)CC[C@H]2C(C)(C)C(=O)C=C[C@]2(C)[C@@H]1C3 | 
